In publication PMC6811774, “Potent, selective, and subunit‐dependent activation of TRPC5 channels by a xanthine derivative” (British Journal of Pharmacology, 2019):

Target: T1, TRPC5-SYFP2 (TRPC5:C5 channels) (Homo sapiens, UniProt Q9UL62)
T1 construct: expressed in transfected cells
T1 sequence (Q9UL62 1-973): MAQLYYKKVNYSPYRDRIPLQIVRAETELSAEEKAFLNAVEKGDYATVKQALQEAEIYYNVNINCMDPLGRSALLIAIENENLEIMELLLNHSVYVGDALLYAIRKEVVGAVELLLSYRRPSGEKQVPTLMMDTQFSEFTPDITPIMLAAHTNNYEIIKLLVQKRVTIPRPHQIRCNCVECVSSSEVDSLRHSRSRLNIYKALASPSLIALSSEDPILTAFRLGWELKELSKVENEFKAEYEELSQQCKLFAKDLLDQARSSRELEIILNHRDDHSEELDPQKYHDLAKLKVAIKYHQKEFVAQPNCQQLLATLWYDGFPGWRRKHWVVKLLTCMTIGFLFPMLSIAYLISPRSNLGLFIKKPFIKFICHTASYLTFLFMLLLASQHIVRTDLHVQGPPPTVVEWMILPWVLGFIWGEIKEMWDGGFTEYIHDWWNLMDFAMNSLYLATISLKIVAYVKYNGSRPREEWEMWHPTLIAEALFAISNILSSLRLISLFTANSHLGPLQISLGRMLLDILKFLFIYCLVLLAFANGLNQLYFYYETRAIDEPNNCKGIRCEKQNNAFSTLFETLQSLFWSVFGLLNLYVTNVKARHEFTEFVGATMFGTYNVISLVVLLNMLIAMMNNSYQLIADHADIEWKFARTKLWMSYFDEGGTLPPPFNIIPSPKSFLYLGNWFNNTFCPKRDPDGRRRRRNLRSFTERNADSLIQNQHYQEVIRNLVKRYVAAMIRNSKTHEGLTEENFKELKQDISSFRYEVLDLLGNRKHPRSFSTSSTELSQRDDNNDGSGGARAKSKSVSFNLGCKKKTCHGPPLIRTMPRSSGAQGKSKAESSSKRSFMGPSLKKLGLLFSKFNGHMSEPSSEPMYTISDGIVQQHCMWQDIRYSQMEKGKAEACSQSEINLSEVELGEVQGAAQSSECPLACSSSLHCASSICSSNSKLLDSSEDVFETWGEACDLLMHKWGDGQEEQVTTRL
Assay: [Ca2+]i measurement (Fura-2, FlexStation) in (Tet+) HEK T-REx cells expressing hTRPC5-SYFP2
Format: cell-based
Excerpt: To facilitate cloning of TRPC5‐SYFP2 and TRPC4‐SYFP2, a pcDNA™4/TO expression vector (ThermoFisher Scientific, Waltham, MA, USA), into which a four amino acid linker (ASAS) flanked by AgeI and SacII restriction sites had been introduced between EcoRI and XhoI restriction sites, was used (Naylor et al., 2016). Human TRPC4β was inserted between BamHI and AgeI restriction sites as described previously (Ludlow et al., 2017). Human TRPC5 (forward primer: 5′ GCTTGGTACCGCCACCATG 3′ and reverse primer: 5′ […] 3′) was inserted upstream of the linker between KpnI and AgeI restriction sites using hTRPC5/pcDNA™4/TO (Zeng et al., 2004) as a PCR template. Both constructs contained an N‐terminal Kozak sequence. SYFP2 was inserted downstream of the linker between SacII and XbaI restriction sites using pSYFP2‐C1 as a PCR template (forward primer, 5′ […] 3′; reverse primer, 5′ […] 3′). pSYFP2‐C1 was a gift from Dorus Gadella (Addgene plasmid #22878; http://n2t.net/addgene:22878; RRID:Addgene_22878; Kremers, Goedhart, van Munster, & Gadella, 2006). Plasmids were sequenced to verify identity.
HEK T‐REx™ cell line was transfected with TRPC5‐SYFP2 or TRPC4‐SYFP2 using FuGENE® HD transfection reagent. After 48 hr, cells were put under antibiotic selection using 400 μg·ml^−1 zeocin and 10 μg·ml^−1 blasticidin S (Invivogen, San Diego, California, USA). Medium changes were carried out regularly to remove dead cells. HEK T‐REx cells expressing tetracycline‐inducible human TRPC5, TRPC4–C1, and TRPC5–C1 were created as described previously (Akbulut et al., 2015; Ludlow et al., 2017; Rubaiy, Ludlow, Henrot, et al., 2017). TRPC5–C1 and TRPC4–C1 concatemers allow expression of functional channels with defined 2:2 stoichiometry that display ion permeability and current–voltage relationships distinct from those of homomeric TRPC4:C4 or TRPC5:C5 channels and consistent with those obtained upon co‐expression of TRPC1 with TRPC4 or TRPC5 (Ludlow et al., 2017; Rubaiy, Ludlow, Bon, & Beech, 2017; Rubaiy, Ludlow, Henrot, et al., 2017). Cells were cultured in DMEM‐F12 GlutaMAX (Invitrogen, Paisley, UK) containing 10% FBS (Sigma‐Aldrich, Gillingham, UK), with the addition of blasticidin (10 μg·ml^−1) and zeocin (400 μg·ml^−1) to maintain the stable incorporation of the tetracycline repressor and the channel of interest, respectively. Expression of proteins was induced by the addition of tetracycline (1 μg·ml^−1, 24 hr). Cells were maintained in a humidified incubator with 5% CO2 at 37°C. HEK 293 cells stably expressing tetracycline‐regulated human http://www.guidetopharmacology.org/GRAC/ObjectDisplayForward?objectId=494 were prepared similarly and have also been described previously (McHugh, Flemming, Xu, Perraud, & Beech, 2003). For experiments using transient co‐expression of TRPC1 and TRPC5, HEK cells at 40–60% confluency were transfected with pIRES2‐AcGFP1 and pIRES2‐DsRed‐Express2 plasmids containing human TRPC1 and TRPC5, respectively, using Lipofectamine 3000 (ThermoFisher Scientific, Yokohama, Japan). All experiments using transient expression were performed within 48 hr after transfection. A498 cells were cultured in Minimum Essential Medium containing Earle's salts (ThermoFisher Scientific, Loughborough, UK), supplemented with 10% FBS and penicillin–streptomycin (100 units per ml^−1, 100 μg·ml^−1; ThermoFisher Scientific, Loughborough, UK). CHO cells stably expressing http://www.guidetopharmacology.org/GRAC/ObjectDisplayForward?objectId=510 were maintained in Ham's Nutrient Mixture F12 (ThermoFisher Scientific, Loughborough, UK) supplemented with 10% FBS, penicillin–streptomycin, and 1 mg·ml^−1 G418 (InvivoGen, San Diego, California, USA). For experiments using hTRPC3 and hTRPC6, WT HEK 293 cells were transfected with hTRPC3 (Naylor et al., 2016) or hTRPC6 (cloned into pcDNA3) using jetPRIME® transfection reagent (VWR, Lutterworth, UK). Cells were assayed 48 hr after transfection. […]

Question: With `Cn1c(=O)n(CCCO)c(=O)c2c1nc(Oc1ccc(Cl)c(OC(F)(F)F)c1)n2Cc1ccc(Cl)cc1` [AM237] as the molecule, how does the “Hill slope, suppression of EA response” value (10 nM EA) read?
Answer: The value was -2.2.

Question: What about the “Effect on S1P-mediated [Ca2+]i response” value (0.3 to 1 nM AM237, 30 min pre-incubation, 10 μM S1P) of the same molecule?
Answer: Its value is “no significant effect”.

Question: What about the “Effect on [Ca2+]i in the absence of extracellular Ca2+” value (0.3–300 nM, Ca2+-free SBS with 0.4 mM EGTA) of the same molecule?
Answer: The value was “did not increase”.

Question: What about the “Effect on S1P-mediated activation of TRPC5:C5” value (3–300 nM AM237, 30 min pre-incubation, 10 μM S1P) of the same molecule?
Answer: Its value is “significantly increased”.

Question: And the IC50 (30 min pre-incubation, then 10 nM EA, read-out: Relative IC50, suppression of EA-mediated [Ca2+]i response)?
Answer: The IC50 was 13 nM.

Question: What about the EC50 (Control (DMSO pretreatment), competition experiment, read-out: EC50, activation) of the same molecule?
Answer: Its EC50 is 10 nM.

Question: And the “Effect on S1P response upon simultaneous addition” value (co-application of 10 μM S1P and 0.3–300 nM AM237)?
Answer: The value was “increases of the responses to S1P”.

Question: And the “Hill slope, activation” value (hTRPC5-SYFP2 concentration–response curve)?
Answer: Its value is 1.4.
